Laboratory results taken from US11332512B2, “Peptides and combination of peptides for use in immunotherapy against various tumors” (Immatics Biotechnologies GmbH, priority 2015, dated 2022).

How the values were obtained:
[1] = system: CD8+ T cells; experiment: In vitro immunogenicity: T-cell priming with aAPCs loaded with peptide/MHC and anti-CD28, pMHC multimer readout; format: cell-based, human; settings: for Wells positive [%]: percentage of positive wells among evaluable, HLA-A*02 restricted peptides
Description: In order to obtain information regarding the immunogenicity of the TUMAPs of the present invention, the inventors performed investigations using an in vitro T-cell priming assay based on repeated stimulations of CD8+ T cells with artificial antigen presenting cells (aAPCs) loaded with peptide/MHC complexes and anti-CD28 antibody.
In order to perform in vitro stimulations by artificial antigen presenting cells loaded with peptide-MHC complex (pMHC) and anti-CD28 antibody, the inventors first isolated CD8+ T cells from fresh HLA-A*02 leukapheresis products via positive selection using CD8 microbeads (Miltenyi Biotec, Bergisch-Gladbach, Germany) of healthy donors obtained from the University clinics Mannheim, Germany, after informed consent. PBMCs and isolated CD8+ lymphocytes were incubated in T-cell medium (TCM) until use consisting of RPMI-Glutamax (Invitrogen, Karlsruhe, Germany) supplemented with 10% heat inactivated human AB serum (PAN-Biotech, Aidenbach, Germany), 100 U/ml Penicillin/100 μg/ml Streptomycin (Cambrex, Cologne, Germany), 1 mM sodium pyruvate (CC Pro, Oberdorla, Germany), 20 μg/ml Gentamycin (Cambrex). 2.5 ng/ml IL-7 (PromoCell, Heidelberg, Germany) and 10 U/ml IL-2 (Novartis Pharma, Nürnberg, Germany) were also added to the TCM at this step. Generation of pMHC/anti-CD28 coated beads, T-cell stimulations and readout was performed in a highly defined in vitro system using four different pMHC molecules per stimulation condition and 8 different pMHC molecules per readout condition.
The purified co-stimulatory mouse IgG2a anti human CD28 Ab 9.3 (Jung et al., 1987) was chemically biotinylated using Sulfo-N-hydroxysuccinimidobiotin as recommended by the manufacturer (Perbio, Bonn, Germany). Beads used were 5.6 μm diameter streptavidin coated polystyrene particles (Bangs Laboratories, Illinois, USA).
pMHC used for positive and negative control stimulations were A*0201/MLA-001 (peptide […] (SEQ ID NO. 289) from modified Melan-A/MART-1) and A*0201/DDX5-001 ([…] from DDX5, SEQ ID NO. 290), respectively.
800.000 beads/200 μl were coated in 96-well plates in the presence of 4×12.5 ng different biotin-pMHC, washed and 600 ng biotin anti-CD28 were added subsequently in a volume of 200 μl. Stimulations were initiated in 96-well plates by co-incubating 1×10^6 CD8+ T cells with 2×10^5 washed coated beads in 200 μl TCM supplemented with 5 ng/ml IL-12 (PromoCell) for 3 days at 37° C. Half of the medium was then exchanged by fresh TCM supplemented with 80 U/ml IL-2 and incubating was continued for 4 days at 37° C. This stimulation cycle was performed for a total of three times. For the pMHC multimer readout using 8 different pMHC molecules per condition, a two-dimensional combinatorial coding approach was used as previously described (Andersen et al., 2012) with minor modifications encompassing coupling to 5 different fluorochromes. Finally, multimeric analyses were performed by staining the cells with Live/dead near IR dye (Invitrogen, Karlsruhe, Germany), CD8-FITC antibody clone SK1 (BD, Heidelberg, Germany) and fluorescent pMHC multimers. For analysis, a BD LSRII SORP cytometer equipped with appropriate lasers and filters was used. Peptide specific cells were calculated as percentage of total CD8+ cells. Evaluation of multimeric analysis was done using the FlowJo software (Tree Star, Oregon, USA). In vitro priming of specific multimer+CD8+ lymphocytes was detected by comparing to negative control stimulations.

[2] = target: HLA-A*02:01 (Homo sapiens, UniProt P04439, D140Y/D185E/D98H/E176V/E277Q/G131W/G231S/I119V/I121R/I166T/I218V/L300P/L318F/N151K/N90K/P208A/P217A/Q86G/Q94H/R138H/R169H/T345S); experiment: MHC binding assay: UV-ligand exchange with beta2m ELISA (peptide exchange yield); settings: binding to HLA-A*02:01, β2m ELISA
Description: Candidate peptides for T cell based therapies according to the present invention were further tested for their MHC binding capacity (affinity). The individual peptide-MHC complexes were produced by UV-ligand exchange, where a UV-sensitive peptide is cleaved upon UV-irradiation, and exchanged with the peptide of interest as analyzed. Only peptide candidates that can effectively bind and stabilize the peptide-receptive MHC molecules prevent dissociation of the MHC complexes. To determine the yield of the exchange reaction, an ELISA was performed based on the detection of the light chain (β2m) of stabilized MHC complexes. The assay was performed as generally described in Rodenko et al. (Rodenko et al., 2006).
96 well MAXISorp plates (NUNC) were coated over night with 2 ug/ml streptavidin in PBS at room temperature, washed 4× and blocked for 1 h at 37° C. in 2% BSA containing blocking buffer. Refolded HLA-A*02:01/MLA-001 monomers served as standards, covering the range of 15-500 ng/ml. Peptide-MHC monomers of the UV-exchange reaction were diluted 100 fold in blocking buffer. Samples were incubated for 1 h at 37° C., washed four times, incubated with 2 ug/ml HRP conjugated anti-β2m for 1 h at 37° C., washed again and detected with TMB solution that is stopped with […]. Absorption was measured at 450 nm. Candidate peptides that show a high exchange yield (preferably higher than 50%, most preferred higher than 75%) are generally preferred for a generation and production of antibodies or fragments thereof, and/or T cell receptors or fragments thereof, as they show sufficient avidity to the MHC molecules and prevent dissociation of the MHC complexes.

Row | Peptide exchange (MHC class I binding score, peptide exchange yield) [2] | Substance | Wells positive [%] [1] | wells ([1]; percentage of positive wells, in vitro priming of CD8+ T cells of healthy HLA-A*02 donors) | donors ([1]; percentage of positive donors, in vitro priming of CD8+ T cells of healthy HLA-A*02 donors)
1 | +++ (= ≥50% = +++) | 4 (VLFGELPAL; listed as Homo sapiens) [compound 4] | + (<20% = +) |  | 
2 | +++ (= ≥50% = +++) | 9 (SLITGQDLLSV; listed as Homo sapiens) [compound 9] | + (<20% = +) |  | 
3 | +++ (= ≥50% = +++) | 14 (YTFSGDVQL; listed as Homo sapiens) [compound 14] | + (<20% = +) |  | 
4 |  | 17 (GLLPSAESIKL; listed as Homo sapiens) [compound 17] | + (<20% = +) |  | 
5 | +++ (= ≥50% = +++) | 27 (GLLGKVTSV; listed as Homo sapiens) [compound 27] | + (<20% = +) |  | 
6 |  | 29 (KMISAIPTL; listed as Homo sapiens) [compound 29] | + (<20% = +) |  | 
7 | +++ (= ≥50% = +++) | 34 (TLNTLDINL; listed as Homo sapiens) [compound 34] | ++++ (> = 70% = ++++) |  | 
8 |  | 35 (VIIKGLEEI; listed as Homo sapiens) [compound 35] | + (<20% = +) |  | 
9 | +++ (= ≥50% = +++) | 39 (YLEDGFAYV; listed as Homo sapiens) [compound 39] | ++++ (> = 70% = ++++) |  | 
10 | +++ (= ≥50% = +++) | 50 (ILLSVLHQL; listed as Homo sapiens) [compound 50] | + (<20% = +) |  | 
11 |  | 66 (AMFPDTIPRV; listed as Homo sapiens) [compound 66] | + (<20% = +) |  | 
12 | +++ (= ≥50% = +++) | 77 (ALYGNVQQV; listed as Homo sapiens) [compound 77] | + (<20% = +) |  | 
13 | +++ (= ≥50% = +++) | 89 (SLAETIFIV; listed as Homo sapiens) [compound 89] | + (<20% = +) |  | 
14 | +++ (= ≥50% = +++) | 97 (KLFEKSTGL; listed as Homo sapiens) [compound 97] | + (<20% = +) |  | 
15 | +++ (= ≥50% = +++) | 101 (SLLEVNEASSV; listed as Homo sapiens) [compound 101] | + (<20% = +) |  | 
16 | +++ (= ≥50% = +++) | 102 (GLYPVTLVGV; listed as Homo sapiens) [compound 102] | + (<20% = +) |  | 
17 |  | 121 (ALYVQAPTV; listed as Homo sapiens) [compound 121] | + (<20% = +) |  | 
18 |  | 157 (ILQDGQFLV; listed as Homo sapiens) [compound 157] | + (<20% = +) |  | 

Row | Peptide exchange (MHC class I binding score, peptide exchange yield) [2] | Substance | Wells positive [%] [1] | wells ([1]; percentage of positive wells, in vitro priming of CD8+ T cells of healthy HLA-A*02 donors) | donors ([1]; percentage of positive donors, in vitro priming of CD8+ T cells of healthy HLA-A*02 donors)
19 | +++ (= ≥50% = +++) | 233 (SLFESLEYL; listed as Homo sapiens) [compound 233] | + (<20% = +) |  | 
20 | +++ (= ≥50% = +++) | 236 (KMSELQTYV; listed as Homo sapiens) [compound 236] | + (<20% = +) |  | 
21 | +++ (= ≥50% = +++) | 242 (KLQEEIPVL; listed as Homo sapiens) [compound 242] | + (<20% = +) |  | 
22 | +++ (= ≥50% = +++) | 246 (ALAGIVTNV; listed as Homo sapiens) [compound 246] | + (<20% = +) |  | 
23 |  | 254 (ALGDKFLLRV; listed as Homo sapiens) [compound 254] | + (<20% = +) |  | 
24 | +++ (= ≥50% = +++) | 255 (FLMKNSDLYGA; listed as Homo sapiens) [compound 255] | + (<20% = +) |  | 
25 | +++ (= ≥50% = +++) | 257 (KLIDHQGLYL; listed as Homo sapiens) [compound 257] | + (<20% = +) |  | 
26 | +++ (= ≥50% = +++) | 260 (ALNESLVEC; listed as Homo sapiens) [compound 260] | + (<20% = +) |  | 
27 | +++ (= ≥50% = +++) | 263 (SIIEYLPTL; listed as Homo sapiens) [compound 263] | + (<20% = +) |  | 
28 |  | 264 (TLHDQVHLL; listed as Homo sapiens) [compound 264] | + (<20% = +) |  | 
29 | +++ (= ≥50% = +++) | 267 (YLLDMPLWYL; listed as Homo sapiens) [compound 267] | + (<20% = +) |  | 
30 | +++ (= ≥50% = +++) | 280 (HLWGHALFL; listed as Homo sapiens) [compound 280] |  |  | 
31 | +++ (= ≥50% = +++) | 283 (ALSELLQQV; listed as Homo sapiens) [compound 283] |  |  | 
32 | +++ (= ≥50% = +++) | 285 (MLLDTVQKV; listed as Homo sapiens) [compound 285] |  |  | 
33 | +++ (= ≥50% = +++) | 286 (FLTEMVHFI; listed as Homo sapiens) [compound 286] |  |  | 
34 |  | 287 (KIQEILTQV; listed as Homo sapiens) [compound 287] |  | + (<20% = +) | 
35 |  | 288 (SLYKGLLSV; listed as Homo sapiens) [compound 288] |  |  | ++++ (> = 70% = ++++)
